Laboratory results reported in patent US6995140B1, “Peptides and polypeptides useful for regenerating the nervous system” (NUCLEICA, priority 1997, dated 2006).
Where no end group is shown, it is not given here.

Columns and labels:
[1] = tested on: cortical neuronal cells; assay: Dissociated cell cultures of cerebral hemispheres of 8-day old chicken embryos (cortical neurons); format: cell-based; conditions: for overall effect on cortical neuron cultures (aggregation, adhesion, neuritic growth): in comparison with peptide SEQ ID NO: 8; for adherent cells carrying neurites relative to controls (controls 24.4%): 4 days of culture
Method: Dissociated Cell Cultures of Cerebral Hemispheres of 8-Day Old Chicken Embryos
The neuronal cultures are obtained from 8-day old chicken embryos. The cerebral hemispheres, after removing the meninges, are cut into small pieces and enzymatically dissociated with 0.25% of trypsin in a PBS saline buffer free of calcium and of magnesium for 15 minutes at 37° C.
The cells are centrifuged at 200 g for 5 minutes in DMEM medium with 20% FCS for the trypsin inactivation. The cells are then filtered on nylon membrane (pore size: 48 microns) and collected in a chemically defined medium free of serum containing a 1/1 mixture of DMEM and Ham's F12 medium supplemented with glutamine (4 mM), glucose (33 mM), penicillin G (50 U/ml), streptomycin sulfate (50 μg/ml) and an N2 supplement of Bottenstein and Sato (1979): putrescine (100 μM), sodium selenite (30 nM), human transferrin (50 μg/ml), progesterone (20 nM), insulin (5 μg/ml) and β-estradiol (1 pM). All the N2 supplements were bought from Sigma.
The cells are plated at a density of 7.5×10^4 cells/cm^2 on 24-well plastic plates. For some experiments, the plastic plates are coated either with fibronectin (24 μg/ml) or with thrombospondin (20 μg/ml). The cultures are incubated at 37° C. and under air containing 10% CO2. The medium is not changed during the experiment. These cultures consist of nearly 95% of neurons.
Moreover, the effect of the peptides according to the present invention SEQ ID NO: 8 and NO: 11 on cultures at low density was studied.

[2] = Solubility of the peptide; format: physicochemical; conditions: basic aqueous medium
[3] = tested on: NIB104 neuroblastoma cells; assay: Culture of cells derived from the NIB104 neuroblastoma; format: cell-based
Method: The cells derived from the NIB104 neuroblastoma were cultured in 24-well plastic plates previously coated with a film of poly-L-lysine, under conditions similar to those for the primary cultures.

[4] = tested on: spinal cord neurons; assay: Cell cultures of spinal neurons; format: cell-based, chicken; conditions: compared with controls
Method: Cell Cultures of Spinal Neurons
The spinal cords of 6-day old chicken embryos are dissected, freed of their meningeal membrane and cut into small pieces in a phosphate buffer (PBS) free of calcium and of magnesium. After incubation with 0.25% trypsin for 10 minutes at 37° C., the tissue is centrifuged at 200 g for 4 minutes in a growth medium containing 20% fetal calf serum in order to stop the trypsinization. The cells are then dissociated by repeated trituration using a Pasteur pipette and resuspended in a chemically defined medium free of serum as above.
The cells are plated at a density of 7.5×10^4 cells/cm^2 on 24-well plastic culture plates. The cultures are incubated at 37° C. and under air containing 10% CO2. The medium is not changed during the experiments and it has already been shown that this type of cell population contained more than 93% of neurons.

[5] = low density culture, morphometric analysis
[6] = morphometric analysis, plastic, versus control
[7] = plates coated with thrombospondin and fibronectin, compared with the controls

Substance	overall effect on cortical neuron cultures (aggregation, adhesion, neuritic growth) [1]	adherent cells carrying neurites relative to controls (controls 24.4%) ([1]; low density culture)	number of neurites per cell [1, 5]	morphology of the neuronal culture ([1]; after 5 days of culture, plastic substrate coated with the peptide)	increase in the number of neuronal aggregates ([1]; between control culture and culture treated with the peptide)	length of the neurites [1, 5]	length of the neurites per aggregate [1, 6]	number of neurites per aggregate [1, 6]	length of the neurites per aggregate [1, 7]	number of neurites per aggregate [1, 7]	adhesion of the cells to the substrate ([1]; substrate coated with the peptide, 5 days of culture, versus control without peptide)	solubility [2]	appearance (phenotype) of the cells ([3]; in the presence of the peptide)	neuritic growth ([3]; increasing concentrations of peptide in the culture medium, morphometric analysis)	number of NIB104 neuroblastoma cells ([3]; versus control cultures)	neuritic growth and fasciculation of the neurites [4]	number of synaptic contacts between the neurites [4]	distribution (aggregation) of the neurons ([4]; in vitro)
R-K-A-R- (RKAR) [peptide SEQ ID NO: 13, peptide for comparison, reference compound]	no representative result	–	–	–	–	–	–	–	–	–	–	–	–	–	–	–	–	–
W-G-P-C-S-V-S-C-G- (WGPCSVSCG) [peptide SEQ ID NO: 11, second peptide according to the invention]	lower but, nevertheless, significant results	2.5 times	not	–	–	–	–	–	–	–	–	–	–	–	–	–	–	–
WSGWSSCSRSCG (cysteine pairing not given here) [peptide SEQ ID NO: 8]	–	2 times	significant increase	aggregate and are essentially connected by bundles of long and thick neurites	9.3%	significant increase	significant increase	significant increase	significantly increased	significantly increased	adhere well to the substrate	soluble in basic aqueous medium	acquire a characteristic neuronal phenotype	gradually increases	considerably less numerous	prominent neuritic growths forming a network without fasciculation of the neurites	increase in the number of synaptic contacts	remain distributed for at least one week
